Measured values published in US9983218B2, “Indole and indoline derivatives and methods of use thereof” (AbbVie Inc., priority 2008, dated 2018).
pEC50: −log10 of the molar value. Where two headings read alike, the source gives them in different places.

Assays:
[1] = system: SK-N-SH human neuroblastoma cells; assay: Serum deprivation/JC-1 mitochondrial membrane potential (MMP) assay; assay type: cell-based; details: for Emax: SK-N-SH, read-out: JC-1 max %; for pEC50: SK-N-SH cells, serum deprivation ~18 hours, JC-1 ratio normalized to peak value for 10 μM dimebolin, single curve fit to mean data of n=2-3, read-out: EC50
Outline: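 Cells were serum-deprived ~18 h in MEM with or without compound (DMSO ≤1%), then stained with JC-1 for 35 min at 37° C. The red/green fluorescence ratio (560/595 vs 485/535 nm) was normalized to the peak response of 10 μM dimebolin. EC50 came from one curve fit to mean data (n=2-3, duplicates).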

[2] = system: primary postnatal (P0) cortical cells; assay: Neurite outgrowth assay (Aβ1-42-induced reduction of neurite outgrowth, high content microscopy); assay type: cell-based, rat; details: for Emax: Rattus norvegicus, read-out: Maximum Effect (of % 300 nM Dimebolin)
Experimental: In addition to PC12 cells, other cellular model systems may also be used. Rat cortical cells were cultured and prepared for high content microscopy analysis as previously described (Hu, M.; Schurdak, M. E.; et al. High content screen microscopy analysis of Aβ1-42-induced neurite outgrowth reduction in rat primary cortical neurons: Neuroprotective effects of α7 neuronal nicotinic acetylcholine receptor ligands. Brain Res. 2007, 1151, 227-235.). Briefly, cortical cell cultures were plated at density of 5×10^5 cells/mL onto poly-D-lysine coated 96-well plates and maintained in a cell incubator at 37° C. with 5% CO2. Experiments were performed using 6-7 day-old cortical cell cultures by treating with test compounds. In some experiments, the effect of test compounds on reversing Aβ toxicity were also measured (Hu, M.; Schurdak, M. E.; et al. High content screen microscopy analysis of Aβ1-42-induced neurite outgrowth reduction in rat primary cortical neurons: Neuroprotective effects of α7 neuronal nicotinic acetylcholine receptor ligands. Brain Res. 2007, 1151, 227-235.). For assessment of neuroprotective effects, cells were first pretreated with test compounds for about 5 hours. Medium was then replaced with the medium containing freshly prepared about 5 μM Aβ1-42 peptide in the absence or presence of the test compounds for 3 days. The untreated group contained the same percentage of vehicle (DMSO) as in the treatment groups. Cells were fixed with approximately 4% paraformaldehyde containing 0.5% Hoechst 33342 for about 15 minutes, followed by three washes using PBS (pH 7.4) and blocked with 10% donkey serum in PBS for 1 hour at room temperature. The cells were then incubated overnight at about 4° C. with mouse anti-tubulin monoclonal antibody (1:100) for staining neurons and rabbit anti-GFAP (1:1000) for staining glia. In the next day, cells were incubated with FITC-labeled anti-mouse and TRITC-labeled anti-rabbit antibodies (1:1000) for about 1 hour at room temperature. After fixing and staining the cells, nuclei (360/400 nm excitation and 465/300 nm emission filters), neuron (475/350 nm excitation and 535/400 nm emission filters) and glial cell (535 nm excitation and 610 nm emission filters) images were collected using the ImageExpress Micro automatic fluorescent microscopy system (Molecular Devices, Sunnyvale, Calif.) employing a Nikon 10× Plan Fluor objective and Cool Snap HQ CCD camera. The Neurite Outgrowth module in the MetaMorph Imaging software was used to automatically count total cell number, number of neuron cells, and the extent of neurite outgrowth.
In the graph of FIG. 2, 100% response was the response observed for untreated cells. Exposure to Aβ1-42 produced a decrease in neurite outgrowth. Treatment of cells with compounds prior to and concomitantly with Aβ1-42 gave a neuroprotective effect with neurite outgrowth maintained or enhanced relative to untreated cells.

[3] = Homo sapiens, percent maximal intensity in JC-1 ratio normalized to 10 μM dimebolin
[4] = maximum response relative to 300 nM dimebolin, at the concentration given

Row | Compound | Emax [1, 3] | pEC50 ([1]; Homo sapiens) | Emax [2, 4] | pEC50 [1] | JC-1 max % ([1]; percent maximal intensity in JC-1 ratio normalized to 10 μM dimebolin) | Maximum Effect (of % 300 nM Dimebolin) [2, 4] | Concentration (nM) at which the maximum effect was noted ([2]; test compound concentration giving the maximum response)
1 | O=c1cccnn1-c1ccc(Cn2c3c(c4cc(F)ccc42)CN2CCC3CC2)cn1 [Example 248, 2-{5-[(9-fluoro-1,3,4,5-tetrahydro-6H-2,5-ethanoazepino[4,3-b]indol-6-yl)methyl]pyridin-2-yl}pyridazin-3(2H)-one] | 110% | 5.28 | 109% | – | – | – | –
2 | O=c1ccnc2ccc(-n3c4c(c5cc(F)ccc53)CN3CCC4CC3)cn12 [Example 261, 7-(9-fluoro-1,3,4,5-tetrahydro-6H-2,5-ethanoazepino[4,3-b]indol-6-yl)-4H-pyrido[1,2-a]pyrimidin-4-one] | 160% | 5.24 | 104% | – | – | – | –
3 | O=c1cccnn1-c1ccc(-n2c3c(c4cc(F)ccc42)CN2CCC3CC2)nc1 [Example 262, 2-[6-(9-fluoro-1,3,4,5-tetrahydro-6H-2,5-ethanoazepino[4,3-b]indol-6-yl)pyridin-3-yl]pyridazin-3(2H)-one] | 182% | 5.06 | 99% | – | – | – | –
4 | Fc1ccc2c(c1)c1c(n2-c2cccnc2)C2CCN(CC2)C1 [Example 264, 9-fluoro-6-(pyridin-3-yl)-3,4,5,6-tetrahydro-1H-2,5-ethanoazepino[4,3-b]indole] | 107% | 5.11 | 110% | – | – | – | –
5 | O=c1cnc2ccc(-n3c4c(c5ccccc53)CN3CCC4CC3)cc2[nH]1 [Example 274, 7-(1,3,4,5-tetrahydro-6H-2,5-ethanoazepino[4,3-b]indol-6-yl)quinoxalin-2(1H)-one] | 235% | 5.64 | 111% | – | – | – | –
6 | O=c1ccnc2ccc(-n3c4c(c5ccccc53)CN3CCC4CC3)cn12 [Example 277, 7-(1,3,4,5-tetrahydro-6H-2,5-ethanoazepino[4,3-b]indol-6-yl)-4H-pyrido[1,2-a]pyrimidin-4-one] | 190% | 5.62 | 91% | – | – | – | –
7 | c1cnc2ccc(-n3c4c(c5ccccc53)[C@@H]3CC[C@H](C4)N3)cc2c1 [Example 282, (7R,10S)-5-(quinolin-6-yl)-5,6,7,8,9,1-hexahydro-7,10-epiminocyclohepta[b]indole] | – | – | – | 5.49 | 228% | 115% | 30 nM
